Experimental data as given in ChEMBL document CHEMBL2407045, “Discovery and gram-scale synthesis of BMS-593214, a potent, selective FVIIa inhibitor” (Bioorg Med Chem Lett, 2013).

Legend:
Coagulation factor VII = target: T1, Coagulation factor VII (Homo sapiens, UniProt P08709); experiment: Inhibition of recombinant human coagulation factor 7A
T1 sequence (P08709 whole entry): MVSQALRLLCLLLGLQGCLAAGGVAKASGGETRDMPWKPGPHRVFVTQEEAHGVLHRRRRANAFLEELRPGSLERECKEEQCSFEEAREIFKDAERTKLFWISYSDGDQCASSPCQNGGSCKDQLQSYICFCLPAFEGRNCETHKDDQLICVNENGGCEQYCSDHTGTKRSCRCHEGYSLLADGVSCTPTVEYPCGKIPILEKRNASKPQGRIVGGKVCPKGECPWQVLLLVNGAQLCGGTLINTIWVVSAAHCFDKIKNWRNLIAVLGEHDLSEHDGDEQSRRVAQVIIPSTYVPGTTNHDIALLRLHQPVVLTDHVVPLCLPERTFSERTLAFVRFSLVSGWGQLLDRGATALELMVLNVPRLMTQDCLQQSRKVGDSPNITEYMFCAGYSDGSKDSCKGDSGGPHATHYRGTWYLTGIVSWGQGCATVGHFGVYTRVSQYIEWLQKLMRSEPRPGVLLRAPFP

Prothrombin = Prothrombin (Homo sapiens, UniProt P00734); experiment: Inhibition of purified human thrombin
Coagulation factor X = Coagulation factor X (Homo sapiens, UniProt P00742); experiment: Inhibition of purified human coagulation factor 10a
Trypsin = Trypsin (Homo sapiens, UniProt P07477+P07478+P35030); experiment: Inhibition of purified human trypsin; assay type: protein assay
Oryctolagus cuniculus [1] = species: Oryctolagus cuniculus; experiment: Antithrombotic activity in rabbit electric current arterial thrombosis model; assay type: functional, organism-based
Oryctolagus cuniculus [2] = species: Oryctolagus cuniculus; experiment: Toxicity in rabbit assessed as prolongation of cuticle bleeding time; assay type: organism-based; conditions: in vivo
[3] = Anticoagulant activity in plasma (unknown origin) assessed as concentration required to double prothrombin time; assay type: functional

Chain of Coagulation factor X (P00742 41-179 limits assumed): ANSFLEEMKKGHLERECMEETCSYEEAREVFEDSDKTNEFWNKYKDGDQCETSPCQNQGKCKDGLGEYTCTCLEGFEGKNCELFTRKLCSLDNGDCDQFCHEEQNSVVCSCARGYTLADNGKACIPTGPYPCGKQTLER
Chain of Coagulation factor X (P00742 235-488 limits assumed): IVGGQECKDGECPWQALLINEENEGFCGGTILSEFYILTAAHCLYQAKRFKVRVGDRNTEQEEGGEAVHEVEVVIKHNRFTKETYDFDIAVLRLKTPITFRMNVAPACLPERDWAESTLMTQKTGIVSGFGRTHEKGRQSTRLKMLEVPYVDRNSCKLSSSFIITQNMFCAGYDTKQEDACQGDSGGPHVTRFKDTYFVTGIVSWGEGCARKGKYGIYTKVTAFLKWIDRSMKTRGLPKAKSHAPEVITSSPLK

| Structure (SMILES) | Ki (Coagulation factor VII) [nM] | Ki (Prothrombin) [nM] | Ki (Coagulation factor X) [nM] | Ki (Trypsin) [nM] | EC50 (Oryctolagus cuniculus [1]) [nM] | Activity (Oryctolagus cuniculus [2]) | 2PT [3] [µM] |
| --- | --- | --- | --- | --- | --- | --- | --- |
| C[C@]1(c2ccccc2)C[C@H](c2ccc(O)cc2)Nc2ccc(C(=N)N)cc21 | 8800 |  |  |  |  |  |  |
| COc1cc([C@@H]2Nc3ccc(C(=N)N)cc3[C@H]3c4ccccc4C[C@H]32)c(-c2ccccc2C(=O)O)cc1O (racemic) | 0.62 | 35 | 16 | 7.5 |  |  |  |
| COc1cc([C@@H]2Nc3ccc(C(=N)N)cc3[C@H]3c4ccccc4C[C@H]32)ccc1O (racemic) | 160 | 300 | > 500 | 300 |  |  |  |
| COc1cc([C@@H]2Nc3ccc(C(=N)N)cc3[C@H]3c4ccccc4C[C@H]32)c(-c2ccc(C(=O)O)cc2)cc1O |  |  |  |  | 570 | Non-toxic |  |
| COc1cc([C@@H]2Nc3ccc(C(=N)N)cc3[C@H]3c4ccccc4C[C@H]32)c(-c2ccc(C(=O)O)cc2)cc1O (racemic) | 1.9 | 1800 | 1300 | > 8000 |  |  | 16 |
| COc1cc([C@H]2C[C@H](c3ccccc3)c3cc(C(=N)N)ccc3N2)ccc1O | 1800 |  |  |  |  |  |  |
| COc1cc([C@@H]2Nc3ccc(C(=N)N)cc3[C@H]3c4ccccc4C[C@H]32)c(-c2cccc(C(=O)O)c2)cc1O (racemic) | 8.1 | 330 | 1500 | 6900 |  |  |  |
